Data set [1] relates to Langerhans cells (LC) in human skin explants cultivated on the CAM. In words: Activation and mobilization of Langerhans cells in human skin grafts on the CAM (CD1a staining). The format is in vivo. How it is done: Excess fat was manually removed from human skin obtained within 2 hours of surgery. The skin was cut into rectangular/square pieces approximately 7-10 mm on each side and stored on a cold plate at 15° C. in saline. Eggs with an artificial air sac were opened with iris scissors in a sterile hood. The ectodermal surface of the CAM was abraded by touching it briefly with a sterile piece of lens tissue to improve the adherence of the graft. The skin was then gently place on the CAM and stretched out. The eggs were then sealed with scotch tape, and returned to the incubator.
Two-three days after grafting the skin, the eggs were re-opened, and the grafts are evaluated visually for viability. Eggs containing skin that has yellowed or that looks obviously infected were discarded. A plastic ring just smaller than the skin was placed on the graft in order to prevent leakage of the test substance away from the skin, using Vaseline to seal it down. Then, a 50 μl drop of the tested substance was placed on the skin, and the egg was re-sealed and incubated for another 6 hours-5 days. At the end of the re-incubation, the skin was removed from the CAM and prepared for paraffin histology. […]
All the microscopic 400 μm-fields in triplicate sections from each skin sample were counted with a 40× objective. The average number of cells per field was then determined and averaged for that skin sample. […]

Data set [2] deals with human skin grafted onto the CAM of a fertilized egg. In words: Human skin irritation quantified with the skin-CAM system. The data set is classed as in vivo. The procedure:
FIGS. 2B and 2C quantitate the change in epidermal thickness of CAM-grafted and organ culture-maintained human skin. Epidermal thickness was measured using digital photos, by tracing the epidermis with a digitizing pad and determining area using the public domain scientific imaging software ImageJ (http://rsb.info.nih.gov/ij/). Size bars represent 0.05 mm
Punch biopsies of human skin were grafted onto the CAM of a fertilized egg as described in Example 1. The human skin samples were allowed to incubate for 2 days after grafting in order to allow for the skin to incorporate, and then the adhesive tape sealing of the samples was reopened. The detergent sodium dodecylsulfate (SDS) was applied to different skin samples at different concentrations topically using a small plastic ring cut from a pipette tip keep the irritant in place. The skin samples were then resealed and returned to the incubator for an addition three days, whereupon they underwent routine histological and immunochemical analysis using Abs for the proliferation marker PCNA. PCNA^+ cells were counted in several sections, and the length of the epidermis in the section measured. Results are expressed as PCNA^+ cells/mm.

Consider `O=[N+]([O-])c1ccc(F)c([N+](=O)[O-])c1` [DNFB, dinitrofluorobenzene], for which the “CD1a+ LC in the epidermis” value in data set [1] (overnight (O/N) incubation, compared to untreated skin fixed immediately or O/N acetone/olive oil (solvent) treated skin, FIG. 9) is “significant decrease”.

Consider `CCCCCCCCCCCCOS(=O)(=O)[O-].[Na+]` [SDS, sodium dodecylsulfate], for which the epidermal thickness result in data set [2] (topical SDS treatment, FIG. 3B) was “no significant differences in epidermal thickness”. Besides, the “epidermal proliferation (PCNA+ cells/mm)” value in data set [2] (topical SDS, 1% and 2.5% produce similar results, 3 days after treatment, p<0.05, FIG. 3A) was “significantly increases epidermal proliferation”.

B1: LT: lymphotoxin (LT) (protein, UniProt P01374 35-205, looked up)
Lymphotoxin-alpha: LPGVGLTPSAAQTARQHPKMHLAHSTLKPAAHLIGDPSKQNSLLWRANTDRAFLQDGFSLSNNSLLVPTSGIYFVYSQVVFSGKAYSPKATSSPLYLAHEVQLFSSQYPFHVPLLSSQKMVYPGLQEPWLHSMYHGAAFQLTQGDQLSTHTDGIPHLVLSPSTVFFGAFAL
B1: the “number of CD1a+ LC in epidermis” value in data set [1] (LT-treated skin grafts, FIG. 10) is “clear decrease”.

The record behind these values is US9273338B2, “Chimeric avian-based screening system containing mammalian grafts” (priority 2004, dated 2016).
